Tested on: NRK
Experiment: Cellular uptake in rat NRK cells assessed as [14C]inostamycin level after 2 hrs
Type: ADME, cell-based

CCC[C@H](O)[C@@]1(CC)C[C@@H](C)[C@](O)([C@]2(C)C[C@H](C)[C@@H]([C@@H](CC)C(=O)[C@@H](C)[C@@H](O)[C@H](C)[C@H]3O[C@@](O)([C@H](CC)C(=O)O)[C@@H](C)[C@H](O)[C@H]3CC)O2)O1 [INOSTAMYCIN]
Activity: Dose-dependent effect
